Experimental data from patent US10188634B2, “3-(3H-imidazo[4,5-C]pyridin-2-yl)-1 H-pyrazolo[4,3-B]pyridines and therapeutic uses thereof” (Samumed, LLC, priority 2015, dated 2019).

Tests used:
Type in all cases: cell-based
[1] = system: Wnt activity (Sp5-Luc reporter, human Sp5 promoter with eight TCF/LEF binding sites) in SW480 colon carcinoma cells; assay: Screening assay for Wnt activity: Sp5-Luc reporter gene assay in SW480 cells; conditions: for inhibition at 10 µM: read-out: percent inhibition at 10 μM (given for EC50 of >10 μM); for EC50: 10-point dose-response starting from 10 μM, overnight incubation
Summary of the method: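 SW480 cells stably carrying Sp5-Luc reporter (eight TCF/LEF sites) plated at 4,000/well in 1% FBS medium with compound (10-point 1:3 series from 10 μM, 0.1% DMSO) overnight at 37 °C. BrightGlo luminescence normalized to DMSO; EC50 by four-parameter fit, else % inhibition at 10 μM.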

SW480 colon cancer cells = assay: Cell viability assay (CellTiter-Blue) in SW480 colon cancer cells; conditions: Homo sapiens, 96 h; for inhibition at 10 µM: four days, CellTiter-Blue, read-out: percent inhibition at 10 μM (given for EC50 of >10 μM); for EC50: four days incubation, CellTiter-Blue cell viability
Summary of the method: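 About 2×10^3 SW480 colon cancer cells per well were exposed to compound (8-point 1:3 dilutions, 10 μM to 0.004 μM) for four days at 37 °C. Viability was read by CellTiter-Blue resazurin reduction (~3 h, Ex 560/Em 590). EC50 from nonlinear regression; above 10 μM, % inhibition at 10 μM is reported.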

[2] = system: primary human mesenchymal stem cells (hMSCs); assay: Induction of chondrogenesis in primary human mesenchymal stem cells (hMSCs), nodule imaging with Rhodamine B / Nile Red; conditions: for Emax: hMSCs chondrogenesis, TGF-β3 (10 ng/mL) as positive control, read-out: Max. Activity as % TGF-β3 activity; for EC50: hMSCs, concentration required to induce 50% levels of chondrogenesis vs TGF-β3 positive control, read-out: Conc (nM) of 50% TGF-β3 activity
Experimental: Representative compounds were screened using primary human mesenchymal stem cells (hMSCs) to determine their ability to induce chondrogenesis (process by which cartilage is developed).
Human Mesenchymal Stem Cell Culture: Primary human mesenchymal stem cells (hMSCs) were purchased from Lonza (Walkersville, Md.) and expanded in Mesenchymal Stem Cell Growth Media (Lonza). Cells between passage 3 and 6 were used for the experiments.
Compound Screening: Each compound was dissolved in DMSO as a 10 mM stock and used to prepare compound source plates. For the 96 well assay, serial dilution (1:3, 6-point dose-response curves from 2700 nM to 10 nM) and compound transfer was performed using the ECHO 550 (Labcyte, Sunnyvale, Calif.) into 96-well clear bottom assay plates (Greiner Bio-One) with appropriate DMSO backfill for a final DMSO concentration of 0.03%. hMSCs were plated at 20,000 cells/well in 250 μL/well Incomplete Chondrogenic Induction Medium (Lonza; DMEM, dexamethasone, ascorbate, insulin-transferrin-selenium [ITS supplement], gentamycin-amphotericin [GA-1000], sodium pyruvate, proline and L-glutamine). TGF-β3 (10 ng/mL) was used as a positive control for differentiation while negative control wells were treated with 75 nL DMSO for normalization and calculating EC50 values. For the 384 well assay, serial dilution (1:3, 8-point dose-response curves from 5000 nM to 2.2 nM) and compound transfer was performed using the ECHO 550 (Labcyte, Sunnyvale, Calif.) into 384-well clear bottom assay plates (Greiner Bio-One) with appropriate DMSO backfill for a final DMSO concentration of 0.03%. hMSCs were plated at 8,000 cells/well in 80 μL/well Incomplete Chondrogenic Induction Medium (Lonza; DMEM, dexamethasone, ascorbate, insulin-transferrin-selenium [ITS supplement], gentamycin-amphotericin [GA-1000], sodium pyruvate, proline and L-glutamine). TGF-β3 (10 ng/mL) was used as a positive control for differentiation while negative control wells were treated with 25 nL DMSO for normalization and calculating EC50 values. Cells were incubated at 37° C. and 5% CO2 for 6 days. To image chondrogenic nodules, the cells were fixed using 4% formaldehyde (Electron Microscopy Sciences), and stained with 2 μg/mL Rhodamine B (Sigma-Aldrich) and 20 μM Nile Red (Sigma-Aldrich) [Johnson K., et.al, A Stem Cell-Based Approach to Cartilage Repair, Science, (2012), 336(6082). 717-721]. The nodules imaged (25 images per well for 96 well plates and 9 images per well for 384 well plates at 10× magnification) by excitation at 531 nm and emission at 625 nm and quantified using the CellInsight CX5 (Thermo Scientific). Area of nodules in each well was normalized to the average of 3 DMSO treated wells on the same plate using Excel (Microsoft Inc.). The normalized averages (fold change over DMSO) of 2 or 3 replicate wells for each compound concentration were calculated. Due to solubility limitations of some of the compounds, curve fitting was incomplete leading to inaccurate EC50 determinations.
Using TGF-β3 as a positive control, the concentration of representative compounds required to induce 50% levels of chondrogenesis is reported. In addition, the maximum activity of each compound and the respective dose that each compound reached maximum chondrogenesis activity is reported.

| SMILES | EC50 [1] | EC50 (SW480 colon cancer cells) | EC50 [2] | inhibition at 10 µM [1] | inhibition at 10 µM (SW480 colon cancer cells) | Emax [2] |
| --- | --- | --- | --- | --- | --- | --- |
| CN(C)Cc1cncc(-c2ccc3[nH]nc(-c4nc5c(N6CCCCC6)cncc5[nH]4)c3n2)c1 [Compound 181, N,N-Dimethyl-1-(5-(3-(7-(piperidin-1-yl)-3H-imidazo[4,5-c]pyridin-2-yl)-1H-pyrazolo[4,3-b]pyridin-5-yl)pyridin-3-yl)methanamine] | > 10 µM | 7.75 µM | 900 nM | 33.1% | – | 84% |
| CCCCC(=O)Nc1cncc(-c2ccc3[nH]nc(-c4nc5c(-c6ccccn6)cncc5[nH]4)c3n2)c1 [Compound 159, N-(5-(3-(7-(Pyridin-2-yl)-3H-imidazo[4,5-c]pyridin-2-yl)-1H-pyrazolo[4,3-b]pyridin-5-yl)pyridin-3-yl)pentanamide] | > 10 µM | > 10 µM | 30 nM | 1% | 9% | 86% |
| CC(C)C(=O)Nc1cncc(-c2ccc3[nH]nc(-c4nc5c(N6CCN(C)CC6)cncc5[nH]4)c3n2)c1 [Compound 233, N-(5-(3-(7-(4-Methylpiperazin-1-yl)-3H-imidazo[4,5-c]pyridin-2-yl)-1H-pyrazolo[4,3-b]pyridin-5-yl)pyridin-3-yl)isobutyramide] | > 10 µM | > 10 µM | – | 6.2% | 1% | 47% |
| Cc1cn(-c2cncc3[nH]c(-c4n[nH]c5ccc(-c6cncc(CN7CCCC7)c6)nc45)nc23)cn1 [Compound 210, 3-(7-(4-Methyl-1H-imidazol-1-yl)-3H-imidazo[4,5-c]pyridin-2-yl)-5-(5-(pyrrolidin-1-ylmethyl)pyridin-3-yl)-1H-pyrazolo[4,3-b]pyridine] | > 10 µM | > 10 µM | 2700 nM | 3.5% | 4% | 65% |
| Fc1cccc(-c2cncc3[nH]c(-c4n[nH]c5ccc(C6=CCNCC6)nc45)nc23)c1 [Compound 478, 3-(7-(3-Fluorophenyl)-3H-imidazo[4,5-c]pyridin-2-yl)-5-(1,2,3,6-tetrahydropyridin-4-yl)-1H-pyrazolo[4,3-b]pyridine] | > 10 µM | > 10 µM | 7 nM | 11% | 0% | 53% |
| CCNCc1cncc(-c2ccc3[nH]nc(-c4nc5c(-c6ccoc6)cncc5[nH]4)c3n2)c1 [Compound 286, N-((5-(3-(7-(Furan-3-yl)-3H-imidazo[4,5-c]pyridin-2-yl)-1H-pyrazolo[4,3-b]pyridin-5-yl)pyridin-3-yl)methyl)ethanamine] | > 10 µM | 2.13 µM | – | 37.4% | – | 29% |
| CN1CCN(c2cncc3[nH]c(-c4n[nH]c5ccc(-c6cncc(N)c6)nc45)nc23)CC1 [Compound 227, 5-(3-(7-(4-Methylpiperazin-1-yl)-3H-imidazo[4,5-c]pyridin-2-yl)-1H-pyrazolo[4,3-b]pyridin-5-yl)pyridin-3-amine] | > 10 µM | > 10 µM | 30 nM | 16.3% | 0% | 65% |
| CCCCC(=O)Nc1cncc(-c2ccc3[nH]nc(-c4nc5c(-c6cc(F)cc(NCCN(C)C)c6)cncc5[nH]4)c3n2)c1 [Compound 439, N-(5-(3-(7-(3-((2-(Dimethylamino)ethyl)amino)-5-fluorophenyl)-3H-imidazo[4,5-c]pyridin-2-yl)-1H-pyrazolo[4,3-b]pyridin-5-yl)pyridin-3-yl)pentanamide] | > 10 µM | > 10 µM | 10 nM | 3.1% | 1.3% | 65% |

Continued, in another order:

| EC50 [1] | EC50 (SW480 colon cancer cells) | EC50 [2] | SMILES | inhibition at 10 µM [1] | inhibition at 10 µM (SW480 colon cancer cells) | Emax [2] |
| --- | --- | --- | --- | --- | --- | --- |
| > 10 µM | > 10 µM | 21 nM | Fc1cccc(-c2cncc3[nH]c(-c4n[nH]c5ccc(-c6cn[nH]c6)nc45)nc23)c1 [Compound 479, 3-(7-(3-Fluorophenyl)-3H-imidazo[4,5-c]pyridin-2-yl)-5-(1H-pyrazol-4-yl)-1H-pyrazolo[4,3-b]pyridine] | 9% | 5.5% | 52% |
| > 10 µM | > 10 µM | 7 nM | Fc1cccc(-c2cncc3[nH]c(-c4n[nH]c5ccc(-c6cncc(OC7CCNCC7)c6)nc45)nc23)c1 [Compound 484, 3-(7-(3-Fluorophenyl)-3H-imidazo[4,5-c]pyridin-2-yl)-5-(5-(piperidin-4-yloxy)pyridin-3-yl)-1H-pyrazolo[4,3-b]pyridine] | 24% | 11.7% | 82% |
| > 10 µM | > 10 µM | – | Cn1cc(-c2ccc3[nH]nc(-c4nc5c(-c6cccc(F)c6)cncc5[nH]4)c3n2)cn1 [Compound 480, 3-(7-(3-Fluorophenyl)-3H-imidazo[4,5-c]pyridin-2-yl)-5-(1-methyl-1H-pyrazol-4-yl)-1H-pyrazolo[4,3-b]pyridine] | 13% | 1.7% | 49% |
| > 10 µM | 8.68 µM | – | O=C(Nc1cncc(-c2ccc3[nH]nc(-c4nc5c(-c6ccc(F)cc6)cncc5[nH]4)c3n2)c1)C1CCC1 [Compound 49, N-(5-(3-(7-(4-Fluorophenyl)-3H-imidazo[4,5-c]pyridin-2-yl)-1H-pyrazolo[4,3-b]pyridin-5-yl)pyridin-3-yl)cyclobutanecarboxamide] | 44% | – | 33% |
| > 10 µM | > 10 µM | 30 nM | COc1cccc(-c2cncc3[nH]c(-c4n[nH]c5ccc(-c6cccnc6)nc45)nc23)c1 [Compound 949, 3-(7-(3-Methoxylphenyl)-3H-imidazo[4,5-c]pyridin-2-yl)-5-(pyridin-3-yl)-1H-pyrazolo[4,3-b]pyridine] | 18.2% | 6.9% | 59% |
